US20120134979A1, “METHODS AND COMPOSITIONS FOR THE TREATMENT OF SICKLE CELL DISEASE” (priority 2010, published 2012)

Tests used:
normal human RBCs = assay: 2,3-DPG levels in primary cultured normal human RBCs; assay type: cell-based; details: for 2,3-DPG levels / production (agonist): primary cultured human RBCs from normal individuals, normoxic; for NECA-mediated 2,3-DPG induction (effect of antagonist): RBCs from normal individuals, 10 μM NECA, antagonists at 10 μM
Protocol: (§1) Isolation of total erythrocytes and treatment of human and mouse erythrocytes in vitro. Blood collected with heparin as an anti-coagulant was centrifuged at 240×g for 10 min at room temperature, followed by aspiration of plasma and white interface. Packed red blood cells (RBCs) were washed 3 times with culture media (F-10 Ham's with 1% penicillin/streptomycin, 10% fetal bovine serum (FBS), and re-suspended to 4% hematocrit (HCT). One ml of RBCs was added to each well of a 12-well plate. Normal RBCs purified from humans were treated with different concentrations of 5′-(N-ethyl-carboxamido) adenosine (NECA, an adenosine receptor agonist, Sigma-Aldrich, St. Louis, Mo.) ranging from 1-50 μM for different time points (from 1 to 18 hr) under normoxic conditions. Normal RBCs were treated with 10 μM NECA in the presence or absence of adenosine receptor antagonists, including theophylline, PSB36, SCH442416, MRS1754 and MRS3777 (Tocris Bioscience, St. Louis, Mo.) at 10 μM. In addition, normal RBCs were treated directly with the A2BR agonist (BAY 60-6583, Bayer HealthCare AG, Wuppertal, Germany) or the A2AR agonist (CGS21680) (Tocris). Similarly, the mouse RBCs were treated with or without NECA at 10 μM in the presence or absence of theophylline (10 μM). In addition, RBCs purified from 4 adenosine receptor deficient mice were treated with 10 μM NECA. After 18 hours, cells were collected and 2,3-DPG levels were measured as described below. RBCs were purified from SCD patients and treated with or without 10 μM NECA, 5 units/ml polyethylene glycol-adenosine deaminase (PEG-ADA) or 3 mmol/L glycolic acid (Sigma-Aldrich), 10 μM MRS1754 (A2BR antagonist) under ambient oxygen (normoxia) or different levels of hypoxic conditions (for 3 hours with shaking at 37° C. At the end of experiments, 2,3-DPG levels were measured and the percentage of sickled cells determined as described below.
(§2) 2,3-DPG analysis. 2,3-DPG concentration in RBCs was detected by a commercially available kit (Roche, Nutley, N.J., and as described in Ericson A, de Verdier C H. A modified method for the determination of 2,3-diphosphoglycerate in erythrocytes. Scandinavian journal of clinical and laboratory investigation. 1972; 29(1):84-90).

RBCs from SCD patients [1] = assay: Hypoxia-induced sickling of RBCs from SCD patients; assay type: cell-based, human; details: RBCs from individuals with SCD, hypoxic conditions
Protocol: as §1
(§3) Morphological study of erythrocytes and quantification of reticulocytes by flow cytometry. Blood smears were stained using the WG16-500 ml kit (Sigma-Aldrich) for sickled cells and observed using 100× oil immersion objective of Olympus BX60 microscope. […] The percentages of sickled cells among the counted cells were calculated. Reticulocyte was labeled by Retic-COUNT Reagent (Becton Dickinson) and quantified by flow cytometry (Perumbeti, et al., A novel human gamma-globin gene vector for genetic correction of sickle cell anemia in a humanized sickle mouse model: critical determinants for successful correction. Blood. 2009; 114(6):1174-1185).

normal mouse RBCs = assay: 2,3-DPG levels in isolated mouse RBCs treated in vitro; assay type: cell-based; details: for NECA-mediated 2,3-DPG induction (effect of inhibitor): normal mouse RBCs
Protocol: as §1, §2

RBCs from SCD patients [2] = assay: Hypoxia-induced 2,3-DPG in erythrocytes purified from SCD patients; assay type: cell-based, human; details: hypoxic conditions (2% oxygen)
Protocol: as §1, §2

mouse RBCs = assay: cAMP levels in isolated mouse RBCs; assay type: cell-based
Protocol: Isolation of total erythrocytes and treatment of human and mouse erythrocytes in vitro. Blood collected with heparin as an anti-coagulant was centrifuged at 240×g for 10 min at room temperature, followed by aspiration of plasma and white interface. […] After 18 hours, cells were collected and 2,3-DPG levels were measured as described below. RBCs were purified from SCD patients and treated with or without 10 μM NECA, 5 units/ml polyethylene glycol-adenosine deaminase (PEG-ADA) or 3 mmol/L glycolic acid (Sigma-Aldrich), 10 μM MRS1754 (A2BR antagonist) under ambient oxygen (normoxia) or different levels of hypoxic conditions (for 3 hours with shaking at 37° C. At the end of experiments, 2,3-DPG levels were measured and the percentage of sickled cells determined as described below.
cAMP measurement. Quantitative assays for cAMP contents in RBCs were performed by using a commercial enzyme immunoassay kit (Assay Designs Inc., Michigan, USA).

SCD Tg mice [3] = assay: Hematological parameters of SCD Tg mice treated with PEG-ADA or PSB1115 for 8 weeks; assay type: in vivo, mouse; details: 8 weeks treatment
Description: Mice. Berkley sickle cell disease transgenic mice (SCD Tg mice), expressing exclusively human sickle hemoglobin (HbS) were purchased from The Jackson Laboratory Inc (Paszty, C. Transgenic and gene knock-out mouse models of sickle cell anemia and the thalassemias. Curr Opin Hematol 4, 88-93, 1997). C57BL/6 mice used as controls were purchased from Harlan Laboratories. Adenosine receptor deficient mice were obtained from the following sources: A1R-deficient mice (Jurgen Schnermann, NIDDK, NIH); A2AR-deficient mice (Jiang-Fan Chen, Boston University School of Medicine); A2BR-deficient mice (Michael R. Blackburn, University of Texas-Houston Medical School); and A3R-deficient mice (Marlene Jacobson, Merck Research Laboratories). All receptor deficient mice were backcrossed at least 10 generations onto the C57Blk/6J background and were genotyped according to established protocols (Sun, D., et al. Mediation of tubuloglomerular feedback by adenosine: evidence from mice lacking adenosine receptors. Proc Natl Acad Sci USA 98, 9983-9988, 2001; Nemeth, Z. H., et al. Adenosine receptor activation ameliorates type 1 diabetes. FASEB J, 2007; Chen, J. F., et al. A2A adenosine receptor deficiency attenuates brain injury induced by transient focal ischemia in mice. J Neurosci 19, 9192-9200, 1999; Salvatore, C. A., et al. Disruption of the A3 adenosine receptor gene in mice and its effect on stimulated inflammatory cells. The Journal of Biological Chemistry 275, 4429-4434, 2000). Animals were maintained in accordance with institutional and NIH guidelines under research protocols that were reviewed and approved by the University of Texas Health Science Center at Houston Animal Welfare Committee.
(§4) Chronic PEG-ADA therapy. SCD transgenic mice, at eight weeks of age, were divided to two groups. One group was injected with 2.5 U PEG-ADA weekly for 8 weeks. This dosing protocol was designated SCD with PEG-ADA treatment regimen (SCD+PEG-ADA). Another group was injected with normal saline for 8 weeks; it was designated as SCD without PEG-ADA treatment regimen (SCD). Wild-type mice (C57Bl/6) used as control were injected with saline or PEG-ADA as with the SCD groups.
(§5) Chronic treatment with A2BR antagonist, PSB1115. SCD transgenic mice or wild type mice (eight weeks of age) were divided to two groups, one groups was injected with 200 μg of PSB1115 (an A2B receptor antagonist: obtained from Tocris Bioscience, St. Louis, Mo.) in PBS, daily for 8 weeks. One of groups was injected with saline.
as §3

SCD Tg mice [4] = assay: 2,3-DPG in RBCs and saturated Hb in SCD Tg mice after chronic treatment; assay type: in vivo, mouse; details: steady state, 8 weeks treatment
Protocol: as §4, §5, §2
Measurement of percentage of saturated Hb in mice. Percentage of saturated Hb (SpO2) in mice was measured by Oxysat (Kent Scientific Corp, CT). Mice were held in mouse holders (Kent Scientific Corp, CT) and Oxysat sensor was placed on a site approximately 1 cm from the base of the tail. When mouse was calm, the SpO2 was continuously recorded for about 2 minutes. The data were collected and SpO2 was calculated by average of SpO2 in two-minute measurement.

SCD Tg mice [5] = assay: Life span of RBCs in SCD Tg mice (in vivo biotin labelling); parameters: species or system mouse
Protocol: Measurement of life span of RBCs in SCD Tg mice. SCD Tg mice were treated with or without PEG ? ADA (2.5 unit/week) for 8 weeks. At 6 week-treatment, RBCs were labeled in vivo by using N-hydroxysuccinimide (NHS) biotin and the life span of circulating red blood cells was measured as described (Perumbeti, et al. A novel human gamma-globin gene vector for genetic correction of sickle cell anemia in a humanized sickle mouse model: critical determinants for successful correction. Blood. 2009; 114(6):1174-1185).
Specifically, 50 mg/kg of NHS biotin was injected into the retro-orbital plexus of SCD Tg mice (prepared in 100 μl sterile saline just prior to injection; initially dissolved at 50 mg/ml in N,—N,-dimethylacetamide) Blood samples (only 5 μl) were collected after first day of biotin-injection from tail vein by venipuncture to determine the percentage of RBCs labeled with biotin. Subsequently, 5 μl of blood were obtained by tail vein every 3 days for measurement of biotinylated RBCs until the 10th day. The percentage of biotinylated RBCs was calculated by determining the fraction of peripheral blood cells labeled with Ter-119 (to identify RBCs) that were also labeled with a streptavidin-conjugated fluorochrome by flow cytometry.

SCD Tg mice [6] = assay: Organ weight, histology and heme content in SCD Tg mice after chronic treatment; assay type: in vivo, mouse; details: 8 weeks treatment, lung, liver, spleen (PSB1115 also kidney)
Protocol: as §4, §5
Mouse organ isolation and histological analysis. Mice were anesthetized and body weight was determined. Organs were isolated and weighed. Half of each organ was quickly frozen in liquid nitrogen and then stored at −80° C. for heme content measurements as described below. The remaining half of each organ was fixed with 4% paraformaldehyde in PBS overnight at 4° C. Fixed tissues were rinsed in PBS, dehydrated through graded ethanol washes, and embedded in paraffin. 5 μm sections were collected on slides and stained with haematoxylin and eosin (H&E). Semiquantification of histological changes was analyzed by Image-Plus, Pro software.
Heme content measurement in multiple mouse tissues. Different organs were quickly removed and frozen in liquid nitrogen as described above. Heme was extracted from organs by homogenization with 1% Triton x-100 in PBS with 1× proteinase inhibitors (Roche) and the supernatant was collected following centrifugation at 20,000 g for 10 minutes at 4° C. Heme content was quantified following the instructions of QuantiChrom Heme Assay Kit (BioAssay Systems, Hayword, Calif.).

`N#Cc1c(N)nc(SCC(N)=O)c(C#N)c1-c1ccc(OCC2CC2)cc1` [BAY 60-6583] was tested, and the “2,3-DPG levels / production (agonist)” value (normal human RBCs) was “induced 2,3-DPG production in a dosage-dependent manner”.
`CCNC(=O)[C@H]1O[C@@H](n2cnc3c(N)nc(NCCc4ccc(CCC(=O)O)cc4)nc32)[C@H](O)[C@@H]1O` [CGS21680] was tested, and the “2,3-DPG levels / production (agonist)” value (normal human RBCs) was “not”.
In the case of `O=S(=O)(NCCNC/C=C/c1ccc(Br)cc1)c1cccc2cnccc12` [H-89], the “percentage of sickled cells” value (RBCs from SCD patients [1]) is reported as “significantly reduced”, the “NECA-mediated 2,3-DPG induction (effect of inhibitor)” value (normal mouse RBCs; NECA 10 μM) is reported as “significantly inhibited” and the “hypoxia-mediated induction of 2,3-DPG” value (RBCs from SCD patients [2]) is reported as “reduced”.
In the case of `CCCn1c(=O)c2[nH]c(-c3ccc(OCC(=O)Nc4ccc(C#N)cc4)cc3)nc2n(CCC)c1=O` [MRS1754], the “NECA-mediated 2,3-DPG induction (effect of antagonist)” value (normal human RBCs) is reported as “inhibited”, the “percentage of sickled cells” value (RBCs from SCD patients [1]) is reported as “significantly reduced” and the “hypoxia-mediated induction of 2,3-DPG” value (RBCs from SCD patients [2]) is reported as “reduced”.
For `c1ccc(Oc2nc(NC3CCCCC3)c3[nH]cnc3n2)cc1` [MRS3777], the “NECA-mediated 2,3-DPG induction (effect of antagonist)” value (normal human RBCs) was “not”.
In the case of `CCNC(=O)[C@H]1O[C@@H](n2cnc3c(N)ncnc32)[C@H](O)[C@@H]1O` [NECA, 5′-N-ethylcarboxamidoadenosine], the “2,3-DPG levels / production (agonist)” value (normal human RBCs) is reported as “stimulated 2,3-DPG levels in a dosage and time-dependent manner”, the “percentage of sickled cells” value (RBCs from SCD patients [1]) is reported as “significantly increased” and the “NECA-mediated 2,3-DPG induction” value (normal mouse RBCs; RBCs from A2BR-deficient mice) is reported as “did not occur”. The “2,3-DPG levels” value (normal mouse RBCs; primary normal mouse mature erythrocytes, NECA 10 μM, 18 hours) was “stimulated an increase”, the cAMP production (mouse RBCs; RBCs from A2BR-deficient mice) was “not” and the cAMP production (mouse RBCs; RBCs from WT mice) was “capable of inducing cAMP production”. For the same compound, the “hypoxia-mediated induction of 2,3-DPG” value (RBCs from SCD patients [2]) was “significantly stimulated a further increase”.
In the case of `CCCCn1c(=O)c2[nH]c(C34CC5CC(CC3C5)C4)nc2n(CCCO)c1=O` [PSB36], the “NECA-mediated 2,3-DPG induction (effect of antagonist)” value (normal human RBCs) is reported as “not”.
`CCCn1c(=O)[nH]c2nc(-c3ccc(S(=O)(=O)O)cc3)[nH]c2c1=O` [PSB1115, reference compound] was tested, and the HCT (SCD Tg mice [3]) was 31.82 ± 3.43 %, the Hb (SCD Tg mice [3]) was 8.25 ± 0.29 g/dL and the MCH (SCD Tg mice [3]) was 12.78 ± 0.46 pg. It also gave an MCHC (SCD Tg mice [3]) of 26.02 ± 1.82 g/dL, an MCV (SCD Tg mice [3]) of 49.17 ± 1.82 fL and an RDW (SCD Tg mice [3]) of 28.27 ± 1.36 %. The Reticulocyte (SCD Tg mice [3]) was 37.15 ± 3.27 %, the Sickle cell (SCD Tg mice [3]) was 9.07 ± 0.75 % and the WBC (SCD Tg mice [3]) was 11.95 ± 3.27 k/μl. For the same compound, the RBC (SCD Tg mice [3]; mean ± SEM) was 6.45 ± 0.45 M/μl, the “2,3-DPG levels in the RBCs” value (SCD Tg mice [4]) was “decreases” and the “fold increase of half-life of RBCs” value (SCD Tg mice [5]; chronic treatment vs untreated) was 2.75 fold. For the same compound, the “half-life of RBCs” value (SCD Tg mice [5]; chronic treatment, untreated 2 days) was 132 h and the “congestion, vascular damage and necrosis in multiple tissues (histology)” value (SCD Tg mice [6]) was “reduced”.
`COc1ccc(CCCn2ncc3c2nc(N)n2nc(-c4ccco4)nc32)cc1` [SCH442416] was tested, and the “NECA-mediated 2,3-DPG induction (effect of antagonist)” value (normal human RBCs) was “not”.
With `O=C(O)CO` [glycolate, glycolic acid] the “percentage of sickled cells” value (RBCs from SCD patients [1]) was “significantly reduced” and the “hypoxia-mediated induction of 2,3-DPG” value (RBCs from SCD patients [2]) was “reduced”.
For `Cn1c(=O)c2[nH]cnc2n(C)c1=O` [theophylline], the “NECA-mediated 2,3-DPG induction (effect of antagonist)” value (normal human RBCs) was “inhibited” and the “NECA-mediated 2,3-DPG induction (effect of inhibitor)” value (normal mouse RBCs; NECA 10 μM) was “prevented”.
